# Test results as given in the supplement of paper PMC10307832.
# Columns and labels:
# Assay in all cases: relative viability (nuclei count vs DMSO), 5 days (fraction); higher = more cells survive
# Linifanib + Palbociclib = compound: Cc1ccc(F)c(NC(=O)Nc2ccc(-c3cccc4[nH]nc(N)c34)cc2)c1 [Linifanib] + CC(=O)c1c(C)c2cnc(Nc3ccc(N4CCNCC4)cn3)nc2n(C2CCCC2)c1=O [Palbociclib] (partner 0.5 µM)
# Procedure, shortened: (§1)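 Relative viability equals treated-well nuclei counts divided by vehicle-well nuclei counts. Counts came from 4× images of lung cancer cell lines grown in 1536-well plates for 5 days after pin-tool dosing on the day after seeding. Dosing used one drug alone or a fixed anchor-drug dose plus five library-drug doses (not always all listed) in √10 steps, and values are medians of duplicate plates.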
# Linifanib + Decitabine = compound: Cc1ccc(F)c(NC(=O)Nc2ccc(-c3cccc4[nH]nc(N)c34)cc2)c1 [Linifanib] + Nc1ncn([C@H]2C[C@H](O)[C@@H](CO)O2)c(=O)n1 [Decitabine] (partner 2 µM)
# Procedure, shortened: as §1
# Linifanib = compound: Cc1ccc(F)c(NC(=O)Nc2ccc(-c3cccc4[nH]nc(N)c34)cc2)c1 [Linifanib]
# Procedure, shortened: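 Five library-drug doses spaced by √10 were pinned onto vehicle-anchored 1536-well plates of lung cancer cell lines that had been kept overnight at 37 °C. Cells went 5 days without medium change, then were fixed, permeabilised and Hoechst-stained together, imaged at 4× and counted by MetaXpress. Viability is the ratio of treated-well to vehicle-well nuclei, taken as a median over plates. Plates required control CV below 25% and at least one doubling.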
Cell Line,relative viability (Linifanib + Palbociclib; first compound 0.03162 µM),relative viability (Linifanib + Palbociclib; first compound 0.1 µM),relative viability (Linifanib + Palbociclib; first compound 0.3162 µM),relative viability (Linifanib + Decitabine; first compound 0.03162 µM),relative viability (Linifanib + Decitabine; first compound 0.1 µM),relative viability (Linifanib + Decitabine; first compound 0.3162 µM),relative viability (Linifanib; 0.03162 µM),relative viability (Linifanib; 0.1 µM),relative viability (Linifanib; 0.3162 µM)
NCI-H1650,0.35,0.399,0.351,0.482,0.407,0.37,0.965,0.966,0.89
NCI-H1651,0.536,0.527,0.487,0.616,0.592,0.517,1.07,1.09,0.978
NCI-H2126,0.376,0.388,0.379,0.58,0.538,0.575,1.02,1.01,0.972
LCLC-103H,0.474,0.417,0.464,0.75,0.667,0.696,1.02,1.03,0.981
NCI-H23,0.486,0.57,0.487,0.355,0.308,0.343,0.98,1.06,0.811
EPLC-272H,0.333,0.338,0.294,0.352,0.435,0.362,0.883,1.23,0.884
NCI-H1975,0.6,0.783,0.551,0.384,0.446,0.413,0.987,1.03,0.938
NCI-H2170,0.385,0.421,0.402,0.472,0.448,0.453,0.989,1.01,0.928
NCI-H358,0.132,0.126,0.114,0.231,0.218,0.213,0.896,1.16,0.924
PC-3 [JPC-3],0.615,0.537,0.487,0.766,0.792,0.847,1.06,1.03,0.939
A-427,0.54,0.548,0.507,0.583,0.612,0.579,1.05,1.07,0.989
LU99A,0.457,0.464,0.408,0.932,1.02,0.824,1.02,1.03,0.853
H3255,0.358,0.302,0.312,0.559,0.667,0.615,1.04,1.01,1.02
NCI-H1437,0.344,0.331,0.311,0.62,0.573,0.571,1.07,1.01,0.978
LC-2-ad,0.499,0.471,0.421,0.759,0.799,0.836,0.996,0.996,0.88
NCI-H1793,0.31,0.349,0.292,0.486,0.412,0.586,0.908,1.08,0.941
NCI-H460,0.133,0.187,0.152,0.492,0.583,0.475,0.984,1.03,0.92
201T,0.369,0.371,0.348,0.867,0.862,0.891,1,0.992,0.982
